# In patent EP0125052B1, “Dopaminergic carbostyrils and a process for preparing them” (SMITHKLINE BECKMAN CORPORATION, priority 1983, dated 1984):
# Legend:
# D2 = D2 (Oryctolagus cuniculus, UniProt G1T1Q0); test: cell-based
# anesthetized dog = anesthetized dog protocol (renal dog screen) measuring renal and cardiovascular parameters; format: in vivo; parameters: decreased heart rate / arterial blood pressure: dose or concentration left out as unconfirmed
# Excerpt: The prior art dopaminergic agent, dopamine, is used as a positive control.
# [1] = test system: spontaneously hypertensive rat (SHR); test: spontaneously hypertensive rat (SHR) protocol; format: in vivo
# Chain of D2 (G1T1Q0 1-443): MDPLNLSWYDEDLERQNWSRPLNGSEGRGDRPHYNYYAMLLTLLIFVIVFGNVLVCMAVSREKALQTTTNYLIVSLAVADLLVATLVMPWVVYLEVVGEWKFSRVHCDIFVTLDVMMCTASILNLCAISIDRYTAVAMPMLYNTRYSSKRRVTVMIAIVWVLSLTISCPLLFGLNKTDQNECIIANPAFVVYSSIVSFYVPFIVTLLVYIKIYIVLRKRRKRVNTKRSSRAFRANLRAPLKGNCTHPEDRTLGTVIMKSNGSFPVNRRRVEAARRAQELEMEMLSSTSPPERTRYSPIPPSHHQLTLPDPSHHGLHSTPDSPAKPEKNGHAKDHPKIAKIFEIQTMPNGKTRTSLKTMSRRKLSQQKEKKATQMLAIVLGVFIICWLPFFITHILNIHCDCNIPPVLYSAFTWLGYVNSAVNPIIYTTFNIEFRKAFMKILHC
structure (smiles),measurement,setting,value
CCCN(CCc1ccc(O)cc1)CCc1ccc(O)c2[nH]c(=O)ccc12 [5-[N-n-propyl-N-(p-hydroxyphenethyl)aminoethyl)-8-hydroxycarbostyril],EC50,D2,12 nM
Cl.NCCc1ccc(O)c2[nH]c(=O)ccc12 [5-aminoethyl-8-hydroxycarbostyril hydrochloride],ED15,"anesthetized dog; Canis lupus familiaris, read-out: RVR-ED15",1.8 µg/kg
same,arterial blood pressure,"anesthetized dog; by infusion, renal dog screen",-8%
same,decreased heart rate,"anesthetized dog; by infusion, renal dog screen",22.5%
same,systolic blood pressure,"[1]; SHR, 25 mg/kg intraperitoneally administered",lowered systolic blood pressure
CCCN(CCC)CCc1ccc(O)c2[nH]c(=O)ccc12 [5-di-n-propylaminoethyl-8-hydroxycarbostyril],renal blood flow,"anesthetized dog; dog protocol, 3 and 30 pg/kg/min infusion",increased renal blood flow
same,systolic hypertension,"[1]; rat test, 12.5, 25 and 50 mg/kg, i.p.",decreased systolic hypertension
